Assay [1] has as its target T1, Ba/F3-FL-EGFR-V769-D770 ins ASV (Homo sapiens, UniProt P00533, DUP767-769, cells depend on it).
T1 construct: Ba/F3-FL-EGFR IC50 (nM) V769-D770ins ASV; other: 72 h; class symbols; Ba/F3-FL-EGFR IC50 (nM) V769-D770ins ASV
Briefly: Cell proliferation inhibitory activity test (CellTiter-Glo), EGFR exon 20 insertion mutation. To be noted: 72 h; class symbols; read-out: Ba/F3-FL-EGFR IC50 (nM) V769-D770ins ASV. It is filed as cell-based. A general note: ATP-based viability assays read luminescence as a measure of living cells.
Experimental: (§1) Cell Proliferation Inhibitory Activity Test Experiment of EGFR Exon 20 Insertion Mutation:
(§2) Cells such as Ba/F3-FL-EGFR-V769-D770 ins ASV, Ba/F3-FL-EGFR-D77-N771 ins SVD, Ba/F3-FL-EGFR-H773-V774 ins NPH, Ba/F3-FL-EGFR-A763-Y764 ins FQEA, constructed by Hefei Precedo Pharmaceuticals Co., Ltd.
(§3) 1000× compound mother liquor was prepared using DMSO, diluted to 20× final concentration using a culture medium, set aside.
(§4) Cells obtained after centrifugation were suspended with a certain amount of the culture medium and counted. The cell suspension solution was adjusted to a specified density using the culture medium, the diluted cell suspension solution was taken into a 96-well plate; 5 μl of 20× compound solution was added to each well of the 96-well plate, the content of DMSO in the final system was 0.1%; the 96-well plate was incubated for 72 h in a 5% CO2 cell incubator at 37° C.
(§5) The 96-well plate was brought to room temperature before detection, 50 μl of CellTiter-Glo® reagent was added to each well, the plate was read after being shaken for 2 minutes on a shaker and placed for 10 minutes at room temperature.
(§6) Inhibition rate (Inh %) relative to control wells processed by a solvent (DMSO) was calculated using the following equation: Inhibition rate (Inh %)=100−(RLU compound−RLU blank)/(RLU control−RLU blank)*100%

Assay [2] has as its target EGFR exon 20 insertion mutant kinase D770-N771insNPG (Homo sapiens, UniProt P00533, INS770NPG). Briefly: Kinase activity assay (33P-ATP filter-binding), EGFR exon 20 insertion mutant kinase D770-N771insNPG. It counts as biochemical. To be noted: ATP Km concentration; 10 concentrations.
Assay [3] deals with Ba/F3-FL-EGFR-D77-N771 ins SVD (Homo sapiens, UniProt P00533, DUP768-770, cells depend on it). Nature of the assay: Cell proliferation inhibitory activity test (CellTiter-Glo), EGFR exon 20 insertion mutation. It counts as cell-based. The conditions noted are these: 72 h; class symbols; read-out: Ba/F3-FL-EGFR IC50 (nM) D77-N771ins SVD.
Experimental: as §1, §2, §3, §4, §5, §6
The target in assay [4] is Ba/F3-FL-EGFR-H773-V774 ins NPH (Homo sapiens, UniProt P00533, DUP771-773, cells depend on it). Described as above. It counts as cell-based. The conditions noted are these: 72 h; class symbols; read-out: Ba/F3-FL-EGFR IC50 (nM) H773-V774ins NPH.
Experimental: as §1, §2, §3, §4, §5, §6
Assay [5] has as its target Ba/F3-FL-EGFR-A763-Y764 ins FQEA (Homo sapiens, UniProt P00533, INS763FQEA, cells depend on it). Described as above. It is filed as cell-based. The conditions noted are these: 72 h; class symbols; read-out: Ba/F3-FL-EGFR IC50 (nM) A763-Y764ins FQEA.
Experimental: as §1, §2, §3, §4, §5, §6
The target in assay [6] is EGFR exon 20 insertion mutant kinase A763_Y764insFHEA (Homo sapiens, UniProt P00533, INS763FHEA). Briefly: Kinase activity assay (33P-ATP filter-binding), EGFR exon 20 insertion mutant kinase A763_Y764insFHEA. It is filed as biochemical. To be noted: for pIC50: ATP Km concentration, 10 concentrations.

The source of these data is patent publication US12509441B2, “Compounds used as kinase inhibitors and application thereof” (TYK MEDICINES (ZHENGZHOU), INC., priority 2020, dated 2025).

The term pIC50 denotes the IC50 on a negative log10 scale, so that one unit is a factor of ten. Higher therefore signals a low IC50.

pIC50: −log10 of the molar value. Where only a bound is given, the exact number is not on record here.

In the case of `C=CC(=O)Nc1cc(Nc2ncc(C3=NOC(C)(C)N3)c(-c3cn(C)c4ccccc34)n2)c(OC)cc1N(C)CCN(C)C` [Example 19], in assay [1], the GI50 is greater than 50 nM.

With `C=CC(=O)Nc1cc(Nc2ncc(C(=O)OC(C)C)c(-n3ncc4c3-c3ccccc3C4)n2)c(OC)cc1N(C)CCN(C)C` [Example 11], in assay [2], the pIC50 is 5.13.

For the compound `C=C(F)C(=O)Nc1cc(Nc2ncc(-c3nnc(C)o3)c(-c3cn(C)c4ccccc34)n2)c(OC)cc1N(C)CCN(C)C` [Example 27], the GI50 in assay [1] lay within 5 to 50 nM.

Take `C=CC(=O)Nc1cc(Nc2ncc(-c3nnc(C)o3)c(-c3cn(C)c4ccccc34)n2)c(OC)cc1N(C)C1CCN(C)CC1` [Example 32]: the GI50 in assay [1] lay within 5 to 50 nM.

For `C=CC(=O)Nc1cc(Nc2ncc(C3=NOC(C)(C)O3)c(-c3cn(C)c4ccccc34)n2)c(OC)cc1N(C)CCN(C)C` [Example 20], the GI50 in assay [1] was greater than 50 nM.

As to `C=C(F)C(=O)Nc1cc(Nc2ncc(-c3nnc(C)o3)c(-c3cn(C)c4ccccc34)n2)c(OC)cc1N(C)[C@H]1[C@@H]2CN(C)C[C@@H]21` [Example 34], the GI50 was less than 5 nM in assay [1], less than 5 nM in assay [3], 5 to 50 nM in assay [4] and less than 5 nM in assay [5].

In the case of `C=CC(=O)Nc1cc(Nc2ncc(-c3nnc(C)o3)c(-c3cn(C)c4ccccc34)n2)c(OC)cc1N(C)CC1(N(C)C)CC1` [Example 23], the GI50 in assay [1], in assay [3], in assay [4] and in assay [5] was less than 5 nM in each case.

In the case of `C=CC(=O)Nc1cc(Nc2ncc(C(=O)OC(C)C)c(-n3ncc4c3Cc3ccccc3-4)n2)c(OC)cc1N(C)CCN(C)C` [Example 6], the figures for the negative logarithm of the IC50 (pIC50) in assay [6] and in assay [2] were 8.05 and 8.86, respectively.

Take `C=CC(=O)Nc1cc(Nc2ncc(C(=O)OC(C)C)c(-c3cn(C)c4ccccc34)n2)c(OC)cc1N1C[C@H]2CN(C)C[C@H]2C1` [Example 36]: the GI50 in assay [1], in assay [3], in assay [4] and in assay [5] was less than 5 nM in each case.

In the case of `C=CC(=O)Nc1cc(Nc2ncc(-c3nnc(C(C)C)o3)c(-c3cn(C)c4ccccc34)n2)c(OC)cc1N(C)CCN(C)C` [Example 31], the GI50 in assay [1] was less than 5 nM.

Take `[2H]C([2H])([2H])n1cc(-c2nc(Nc3cc(NC(=O)C=C)c(N(C)CCN(C)C)cc3OC)ncc2-c2nnc(C)o2)c2ccccc21` [Example 24]: the GI50 in assay [1], in assay [3], in assay [4] and in assay [5] was less than 5 nM in each case.

Take `C=CC(=O)Nc1cc(Nc2ncc(C(=O)OC(C)C)c(-c3cn(C)c4ccccc34)n2)c(OC)cc1N(C)C1(CN(C)C)CC1` [Example 42]: the GI50 in assay [1] is less than 5 nM.

For `C=CC(=O)Nc1cc(Nc2ncc(-c3nnc(C)o3)c(-c3c[nH]c4ccccc34)n2)c(OC)cc1N(C)CCN(C)C` [Example 26], the GI50 in assay [1], in assay [3], in assay [4] and in assay [5] was less than 5 nM throughout.

As to `C=CC(=O)Nc1cc(Nc2ncc(C(=O)OC(C)C)c(-c3cn(C)c4ccccc34)n2)c(OC)cc1N(C)CC1(N(C)C)CC1` [Example 41], the GI50 in assay [1], in assay [3], in assay [4] and in assay [5] was less than 5 nM throughout.

For `C=CC(=O)Nc1cc(Nc2ncc(-c3nnc(CC)o3)c(-c3cn(C)c4ccccc34)n2)c(OC)cc1N(C)CCN(C)C` [Example 33], the GI50 in assay [1], in assay [3], in assay [4] and in assay [5] was less than 5 nM each time.

On to `C=CC(=O)Nc1cc(Nc2ncc(C(=O)N(C)S(C)(=O)=O)c(-c3cn(C)c4ccccc34)n2)c(OC)cc1N(C)CCN(C)C` [Example 9], for which the negative-log IC50 (pIC50) in assay [6] is 7.98; in assay [2] it was 8.74.

Regarding `[2H]C([2H])([2H])n1cc(-c2nc(Nc3cc(NC(=O)C=C)c(N(C)CCN(C)C)nc3OCC(F)(F)F)ncc2-c2nnc(C)o2)c2ccccc21` [Example 3], the pIC50 was 8.22 in assay [6] and 8.83 in assay [2].

Take `C=CC(=O)Nc1cc(Nc2ncc(-c3nnc(C)o3)c(-c3cn(C)c4ccccc34)n2)c(OC)cc1N1C[C@H]2CN(C)C[C@H]2C1` [Example 28]: in assay [1], the GI50 is greater than 50 nM.

Turning to `C=CC(=O)Nc1cc(Nc2ncc(-c3nnc(C)o3)c(-c3cn(C)c4ccccc34)n2)c(OC)cc1N(C)C1CC2(C1)CN(C)C2` [Example 30], in assay [1], the GI50 is greater than 50 nM.

Consider `C=CC(=O)Nc1cc(Nc2ncc(-c3nnc(C)s3)c(-c3cn(C)c4ccccc34)n2)c(OC)cc1N(C)CCN(C)C` [Example 25], for which the GI50 was less than 5 nM in assay [1], 5 to 50 nM in assay [3], 5 to 50 nM in assay [4] and less than 5 nM in assay [5].

Regarding `C=CC(=O)Nc1cc(Nc2ncc(-c3nnc(C)o3)c(-c3cn(C4CC4)c4ccccc34)n2)c(OCC(F)(F)F)nc1N(C)CCN(C)C` [Example 4], the negative logarithm of the IC50 (pIC50) is 7.82 in assay [6] and 8.55 in assay [2].

With `C=CC(=O)Nc1cc(Nc2ncc(C(=O)OC(C)C)c(-n3cc4c(n3)-c3ccccc3C4)n2)c(OC)cc1N(C)CCN(C)C` [Example 12], the pIC50 in assay [6] was 8.64; in assay [2], 9.52. Moreover, the “activity relative to the compound with the optimal activity disclosed in WO2015195228A1 (TAK788)” value in assay [6] (EGFR exon 20 insertion mutant kinases of Table 4) is 2 to 3 times.

Turning to `C=CC(=O)Nc1cc(Nc2nccc(-n3ncc4c3-c3ccccc3C4)n2)c(OC)cc1N(C)CCN(C)C` [Example 13], the pIC50 in assay [6] is 7.21; in assay [2], 6.77.

Consider `C=CC(=O)Nc1cc(Nc2ncc(C(=O)OC(C)C)c(-c3cn(C)c4ccccc34)n2)c(OC)cc1N(C)[C@H]1[C@@H]2CN(C)C[C@@H]21` [Example 40], for which the GI50 in assay [1], in assay [3], in assay [4] and in assay [5] was less than 5 nM throughout.

As for `[2H]C([2H])([2H])n1cc(-c2nc(Nc3cc(NC(=O)C=C)c(N(C)CCN(C)C)nc3OCC(F)(F)F)ncc2CO)c2ccccc21` [Example 10], the negative-log IC50 (pIC50) was 7.44 in assay [6] and 8.12 in assay [2].

`C=CC(=O)Nc1cc(Nc2ncc(-c3nnc(C(F)F)s3)c(-c3cn(C)c4ccccc34)n2)c(OC)cc1N(C)CCN(C)C` [Example 29]: the GI50 in assay [1] is 5 to 50 nM; in assay [3], less than 5 nM; in assay [4], 5 to 50 nM; in assay [5], less than 5 nM.

Turning to `C=CC(=O)Nc1cc(Nc2ncc(C(=O)OC(C)C)c(-n3cc4c(n3)Cc3ccccc3-4)n2)c(OC)cc1N(C)CCN(C)C` [Example 7], the negative logarithm of the IC50 (pIC50) in assay [6] was 5.25; in assay [2] it was 5.92.

For the compound `C=CC(=O)Nc1cc(Nc2ncc(C(=O)OC(C)C)c(-c3cn(C)c4ccccc34)n2)c(OC)cc1N(C)[C@H]1C[C@@H]2CN(C)C[C@@H]2C1` [Example 43], in assay [1], the GI50 is less than 5 nM.

`C=CC(=O)Nc1cc(Nc2ncc(-c3nnco3)c(-c3cn(C)c4ccccc34)n2)c(OC)cc1N(C)CCN(C)C` [Example 21]: in assay [1], the GI50 is less than 5 nM.

Consider `[2H]C([2H])([2H])n1cc(-c2nc(Nc3cc(NC(=O)C=C)c(N(C)[C@H]4[C@@H]5CN(C)C[C@@H]54)cc3OC)ncc2C(=O)OC(C)C)c2ccccc21` [Example 47], for which the GI50 in assay [1], in assay [3], in assay [4] and in assay [5] was less than 5 nM each time.

Turning to `C=CC(=O)Nc1cc(Nc2ncc(-c3nnc(C)o3)c(-c3cn(C)c4ccccc34)n2)c(OC)cc1N(C)C1(CN(C)C)CC1` [Example 22], the GI50 in assay [1] is less than 5 nM.
